Assay results published in US20240238248A1, “PHARMACEUTICAL COMPOSITION FOR USE IN TREATING CEREBRAL INFARCTION” (Ji Xing Pharmaceuticals Hong Kong Limited, priority 2021, published 2024).
Like-named read-outs stand apart in the source and are kept apart here.

Experiments:
[1] = tested on: cerebral infarction patients; experiment: Phase II single dose study for cerebral infarction patients: safety; format: in vivo
Description: (§1) Randomized, double blind, placebo control, single dose, intravenous administration, parallel between groups and dose escalation regimen
(§2) Cerebral infarction patients within 12 hours from onset are used as subjects. Test subjects (90 patients: first cohort: 9, second cohort: 27, third cohort: 54) are determined in accordance with the following selection criteria and exclusion criteria.
To patients with acute cerebral infarction within 12 hours after onset, TMS-007 (SMTP-7 sodium salt preparation)) or a placebo were administered intravenously once (bolus over 1 minute+continuous injection over 30 minutes).
The frequency of occurrence of symptomatic intracranial hemorrhage with NIHSS score worsening of 4 or more points up to 24 hours after administration of TMS-007

[2] = Phase II single dose study: pharmacokinetics (plasma TMS-007 concentration); format: in vivo, human; settings: for concentration at 31 min / concentration at 2 h: human, plasma, intravenous, patients, read-out: plasma TMS-007 concentration (mean±standard deviation); for concentration at 31 min: 31 minutes after administration; for concentration at 2 h: 2 hours after the administration
Description: (§3) To patients with acute cerebral infarction within 12 hours after onset, TMS-007 (SMTP-7 sodium salt preparation)) or a placebo were administered intravenously once (bolus over 1 minute+continuous injection over 30 minutes). The ratio of number of patients to which an active drug (TMS-007 sodium salt preparation) is to be administered relative to the number of patients to which a placebo is to be administered is set at 2:1 in the first and second cohorts and 1:1 in the third cohort as shown in Table 1 below.
(§4) • Safety (e.g., extracranial hemorrhage, major hemorrhage) up to Day 7 after administration • Symptomatic intracranial hemorrhage and non-symptomatic intracranial hemorrhage within 24 hours after administration • Value of mRS on Day 90 after administration • A rate of recanalization observed in an MRA image of 24 hours after administration • PK (concentration of unchanged form of TMS-007, Cmax, AUC) when TMS-007 was administered
In the PK analysis set, the dose groups except the placebo group were subjected to counting/analysis. The plasma TMS-007 concentrations (original scale value, mean±standard deviation) of the TMS-007 (1, 3, 6 mg/kg) groups (hereinafter described in the same order) 31 minutes after administration of a study drug were 7.294±1.472, 29.28±8.425 and 52.19±12.76 μg/mL, respectively; the plasma TMS-007 concentrations 2 hours after the administration were 0.1379±0.09777, 0.8970±0.5752 and 3.033±2.924 μg/mL, respectively. With respect to the plasma concentration value (logarithmic conversion value) of a study drug 31 minutes after initiation of administration, difference between doses was evaluated by one-way ANOVA using a dose as a factor. As a result, p value was less than 0.0001 and difference was statistically significant
When the dose proportionality of plasma TMS-007 concentration of the investigational new drug 31 minutes after initiation of administration, was evaluated, a point estimation value (two-sided 95% confidence interval) of slope (b) of a regression equation of power model was 1.042 (0.895-1.189). From this, linearity of TMS-007 in the dose range of 1 to 6 mg/kg was confirmed (see, FIG. 11).

[3] = Toxicity test by two-week repeated administration to rats; settings: both sexes, rat, in vivo, intravenous over 30 minutes once daily for two weeks, 2.4, 12 and 60 mg/kg
Description: (§5) Rats (12 males and 12 females) under neither anesthesia nor unrestrained condition were repeatedly and intravenously given TMS-007 (preparation of a sodium-salt thereof) at a dose of 2.4, 12 and 60 mg/kg (continuously over 30 minutes) once daily for two weeks. The day after completion of repeated administration, the rats were subjected to autopsy. As a result, NOAEL of the toxicity test of rats by repeated administration was determined to be 60 mg/kg or more.

[4] = Phase I test for healthy persons: pharmacokinetics; format: in vivo, human; settings: for Cmax / AUC(0-t): iv; for AUC(0-t): read-out: AUC0-24 (converted)
Description: (§6) Phase I test (placebo-control randomized double-blind test) for healthy adult males was carried out. Five cohorts each was constituted of 8 persons (active drug was administered to 6 person and a placebo was administered to 2 person) were used in the test. TMS-007 (SMTP-7 sodium salt preparation) or a placebo was administered intravenously once at a dose of 0.05, 0.25, 1, 3, and 6 mg/kg (equivalent) over 31 minutes (bolus over 1 minute+continuous administration over 30 minutes). The subjects determined to be eligible by a screening test were hospitalized the day before administration. Day 3 from completion of administration, the subjects were allow to leave the hospital. Day 7 from completion of administration, post (follow-up) examination was carried out for safety, tolerance and PK in the period up to Day 7.

[5] = tested on: cerebral infarction patients observed to have occlusion; experiment: Phase II single dose study: recanalization rate evaluated by MRA; format: in vivo, human; settings: TMS-007 administration group vs placebo group
Description: as §3, §4
The recanalization rate was evaluated by MRA. Patients (39 cases) observed to have occlusion at the time of enrollment and observed to be “canalized” or “partially canalized” on Day 2 were evaluated as recanalization cases. The ratio of the recanalization cases was 14/[…] cases (58.3%) in the TMS-007 administration groups and 4/15 cases (26.7%) in the placebo group. […]

[6] = Plasma pharmacokinetics in rats (repeated-dose study); format: in vivo; settings: rat, iv, male rats, 12 mg/kg-dose group, initial day of repeated-dose study, average
Description: as §5
(§7) Cmax and AUC0-24 values when TMS-007 was administered to rats and monkeys were as follows.

[7] = Toxicity test by two-week repeated administration to cynomolgus monkeys; settings: both sexes, cynomolgus monkey, in vivo, male and female, intravenous over 30 minutes once daily for two weeks, 3, 10 and 30 mg/kg
Description: (§8) Cynomolgus monkey (3 males per group and 3 females per group) under neither anesthesia nor unrestrained condition were repeatedly and intravenously given TMS-007 (preparation of a sodium-salt thereof) at a dose of 3, 10 and 30 mg/kg (continuously over 30 minutes) once daily for two weeks. The day after completion of repeated administration, the monkeys were subjected to autopsy. As a result, NOAEL of the toxicity test of cynomolgus monkeys by repeated administration was determined to be 10 mg/kg or more in both male and female groups.

[8] = Plasma pharmacokinetics in monkeys (extended single-dose and repeated-dose study); format: in vivo; settings: monkey, iv, male monkeys, 10 mg/kg-dose group, extended single-dose study and repeated-dose study (first day), average
Description: as §8, §7

[9] = tested on: cerebral infarction patients; experiment: Phase II single dose study: mRS on Day 90 after administration; format: in vivo, human; settings: for Odds ratio, rate of obtaining outcome of mRS0-2: Day 90 after administration
Description: as §1, §2, §3, §4
In the FAS group, to mRS evaluation of individual dose groups (mRS 0-1 is assigned 1, mRS 2-6 is assigned 0) Day 90 after administration (Day 90), a logistic model using response, dose groups (TMS-007-combined group and placebo group), mRS on the base line, NIHSS score, age, blood pressure (systolic blood pressure) as explanatory variables was applied, odds ratio and 95% confidence interval of the TMS-007-combined group relative to the placebo group were estimated. The same estimation was carried out by using TMS-007 dose groups as the dose groups relative to the placebo group. More specifically, the odds ratios of individual TMS-007 dose groups relative to the placebo group and 95% confidence interval were estimated.

mice, rats and monkeys = experiment: Pharmacological tests using mice, rats and monkeys; format: in vivo; settings: dose of 1 to 10 mg/kg
Description: as §7

healthy adult males = experiment: Phase I test for healthy persons: safety and tolerance; format: in vivo, human
Description: as §6

[10] = male, human, blood, 0.05 mg/kg single i.v. over 31 minutes
[11] = male, human, blood, 0.25 mg/kg single i.v. over 31 minutes
[12] = male, human, blood, 1 mg/kg single i.v. over 31 minutes
[13] = male, human, blood, 3 mg/kg single i.v. over 31 minutes
[14] = male, human, blood, 6 mg/kg single i.v. over 31 minutes
[15] = TMS-007 combined group to placebo group, Day 90, FAS

In the case of CC(C)=CCC/C(C)=C/CC[C@]1(C)Oc2c(c(O)cc3c2CN(CCC[C@@H](C(=O)O)N2Cc4c(cc(O)c5c4O[C@@](C)(CC/C=C(\C)CCC=C(C)C)[C@@H](O)C5)C2=O)C3=O)C[C@@H]1O [TMS-007, (S)-2,5-bis((2S,3S)-2-((E)-4,8-dimethylnona-3,7-dien-1-yl)-3,5-dihydroxy-2-methyl-7-oxo-3,4,7,9-tetrahydropyrano[2,3-e]isoindol-8(2H)-yl)pentanoic acid], the “occurrence of major hemorrhage” value ([1]; human, in vivo) is reported as “not observed”, the symptomatic intracranial hemorrhage ([1]; human, in vivo) is reported as “not observed” and the “frequencies of adverse event, serious adverse event, side effect, serious side effect, adverse event leading to discontinuation vs placebo (Fisher's exact test)” value ([1]; individual TMS-007 groups and combined group, up to Day 90) is reported as “not statistically significant”. The “symptomatic intracranial hemorrhage with NIHSS score worsening of 4 or more points” value ([1]; up to 24 hours after administration, safety analysis set, TMS-007 groups (1, 3, 6 mg/kg)) was “not observed”, the concentration at 31 min ([2]; 1 mg/kg) was 7290 ± 1470 ng/mL and the concentration at 2 h ([2]; 1 mg/kg) was 138 ± 97.8 ng/mL. For the same compound, the concentration at 31 min ([2]; 3 mg/kg) was 29300 ± 8420 ng/mL, the concentration at 2 h ([2]; 3 mg/kg) was 897 ± 575 ng/mL and the concentration at 31 min ([2]; 6 mg/kg) was 52200 ± 12800 ng/mL. The concentration at 2 h ([2]; 6 mg/kg) was 3030 ± 2920 ng/mL, the “slope (b) of regression equation of power model, dose proportionality (two-sided 95% confidence interval)” value ([2]; plasma concentration 31 minutes after initiation of administration, 1 to 6 mg/kg) was 1.042 (0.895-1.189) and the NOAEL at 2 weeks [3] was no less than 60 mg/kg. For the same compound, the “Unchanged form of TMS-007 in urine” value ([4]; any one of the cohorts) was “not observed”, the “time of peak blood concentration” value ([4]; immediately after completion of administration, all cohorts) was 31 min and the half-life ([4]; male, human, blood, intravenous, regardless of the dose (0.05-6 mg/kg), read-out: half-lives in blood) was 10 to 15 min. It also gave a Cmax [4, 10] of 346 ng/mL, an AUC(0-t) [4, 10] of 252 ng·h/mL and a Cmax [4, 11] of 1860 ± 150 ng/mL. It also gave an AUC(0-t) [4, 11] of 1380 ng·h/mL, a Cmax [4, 12] of 6700 ng/mL and an AUC(0-t) [4, 12] of 5020 ng·h/mL. It also gave a Cmax [4, 13] of 20300 ng/mL, an AUC(0-t) [4, 13] of 16000 ng·h/mL and a Cmax [4, 14] of 49900 ± 5200 ng/mL. For the same compound, the AUC(0-t) [4, 14] was 38800 ng·h/mL, the “odds ratio of recanalization” value [5] was 4.23 and the Cmax [6] was 20200 ng/mL. For the same compound, the AUC(0-t) ([6]; read-out: AUC0-24 (converted)) was 25700 ng·h/mL, the NOAEL at 2 weeks [7] was no less than 10 mg/kg and the Cmax [8] was 45800 to 58600 ng/mL. For the same compound, the AUC(0-t) ([8]; read-out: AUC0-24) was 32200 to 40200 ng·h/mL, the “Estimated value (logistic model, dose group) for mRS 0-1” value ([9]; 1 mg/kg to placebo group, Day 90, FAS) was −2.425 and the “Odds ratio, rate of obtaining outcome of mRS0-2” value (shortened to “Odds ratio, rate”) ([9]; 1 mg/kg) was 0.292. The “Estimated value (logistic model, dose group) for mRS 0-1” value ([9]; 3 mg/kg to placebo group, Day 90, FAS) was −0.726, the “Odds ratio, rate” value ([9]; 3 mg/kg) was 0.585 and the “Estimated value (logistic model, dose group) for mRS 0-1” value ([9]; 6 mg/kg to placebo group, Day 90, FAS) was −1.207. For the same compound, the “Odds ratio, rate” value ([9]; 6 mg/kg) was 0.506, the “Estimated value (logistic model, dose group) for mRS 0-1” value [9, 15] was −1.206 and the “Odds ratio of mRS (mRS 0 and 1 assigned 1, mRS 2-6 assigned 0)” value [9, 15] was 0.299. The “Odds ratio, rate” value ([9]; TMS-007 combined group) was 0.500, the medicinal effects (mice, rats and monkeys) was “reduction of the area of infarction and improvement of neurological symptoms” and the Adverse events observed (healthy adult males; single i.v. 0.05-6 mg/kg) was “all non-serious/mild/restorability”. The “indication of hemorrhagic risk” value (healthy adult males; single i.v. dose-escalation trial) was “not observed”.
